For 3 compounds, Ki and IC50 results are on record in ChEMBL document CHEMBL4364347, “Recent advances in class IIa histone deacetylases research” (Bioorg Med Chem, 2019).

The target in assay [1] is T1, Histone deacetylase 4 (Homo sapiens, UniProt P56524). The assay is described as follows: Inhibition of HDAC4 (unknown origin).
The target of assay [2] is T2, Histone deacetylase 5 (Homo sapiens, UniProt Q9UQL6). The assay is described as follows: Inhibition of HDAC5 (unknown origin).
Another assay addresses Histone deacetylase 3 (Homo sapiens, UniProt O15379). The assay is described as follows: Inhibition of HDAC3 (unknown origin).
The next assay addresses T3, Histone deacetylase 8 (Homo sapiens, UniProt Q9BY41).
T3 sequence (Q9BY41 whole entry): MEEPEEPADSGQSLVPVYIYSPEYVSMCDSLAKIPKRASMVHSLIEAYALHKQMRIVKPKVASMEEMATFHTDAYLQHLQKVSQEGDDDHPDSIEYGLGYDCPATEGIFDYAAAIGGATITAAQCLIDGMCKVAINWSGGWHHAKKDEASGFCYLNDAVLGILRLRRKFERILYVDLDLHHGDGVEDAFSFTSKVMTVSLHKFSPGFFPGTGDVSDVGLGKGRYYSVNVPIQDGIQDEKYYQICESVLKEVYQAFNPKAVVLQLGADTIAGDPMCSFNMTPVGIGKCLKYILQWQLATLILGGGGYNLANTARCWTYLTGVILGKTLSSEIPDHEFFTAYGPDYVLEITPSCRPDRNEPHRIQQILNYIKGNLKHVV
The assay is described as follows: Inhibition of HDAC8 (unknown origin).

For assay [3], the target named is T4, Histone deacetylase 9 (Homo sapiens, UniProt Q9UKV0). The assay is described as follows: Inhibition of HDAC9 (unknown origin).
T4 sequence (Q9UKV0 whole entry): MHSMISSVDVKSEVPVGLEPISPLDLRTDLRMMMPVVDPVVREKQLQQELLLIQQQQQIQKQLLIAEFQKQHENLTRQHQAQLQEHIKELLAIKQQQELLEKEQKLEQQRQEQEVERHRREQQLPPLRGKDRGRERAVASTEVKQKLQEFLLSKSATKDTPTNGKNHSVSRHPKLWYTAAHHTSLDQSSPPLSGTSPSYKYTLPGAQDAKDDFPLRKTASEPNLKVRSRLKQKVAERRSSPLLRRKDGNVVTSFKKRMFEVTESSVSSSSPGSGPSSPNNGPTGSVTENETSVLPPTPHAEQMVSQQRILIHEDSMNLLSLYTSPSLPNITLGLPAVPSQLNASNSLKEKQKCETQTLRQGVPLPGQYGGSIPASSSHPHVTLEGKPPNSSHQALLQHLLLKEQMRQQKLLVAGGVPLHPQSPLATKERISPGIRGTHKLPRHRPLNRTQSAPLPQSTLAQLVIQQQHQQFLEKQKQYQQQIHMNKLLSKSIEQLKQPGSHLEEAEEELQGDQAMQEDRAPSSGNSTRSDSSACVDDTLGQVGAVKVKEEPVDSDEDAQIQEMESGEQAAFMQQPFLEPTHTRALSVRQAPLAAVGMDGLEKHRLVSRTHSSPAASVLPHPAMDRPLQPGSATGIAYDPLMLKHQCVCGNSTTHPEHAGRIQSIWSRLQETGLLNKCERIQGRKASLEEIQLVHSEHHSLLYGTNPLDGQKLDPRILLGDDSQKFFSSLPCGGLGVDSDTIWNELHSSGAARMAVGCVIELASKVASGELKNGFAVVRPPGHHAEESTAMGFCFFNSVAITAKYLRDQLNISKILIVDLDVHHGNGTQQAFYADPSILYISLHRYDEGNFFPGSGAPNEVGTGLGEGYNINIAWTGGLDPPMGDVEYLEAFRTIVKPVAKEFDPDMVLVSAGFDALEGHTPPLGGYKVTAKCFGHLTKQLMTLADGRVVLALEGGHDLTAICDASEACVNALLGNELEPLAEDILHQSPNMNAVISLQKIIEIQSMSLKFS
The target in the next assay is Histone deacetylase 2 (Homo sapiens, UniProt Q92769). The assay is described as follows: Inhibition of HDAC2 (unknown origin).
Sequence of Histone deacetylase 2 (Q92769 whole entry): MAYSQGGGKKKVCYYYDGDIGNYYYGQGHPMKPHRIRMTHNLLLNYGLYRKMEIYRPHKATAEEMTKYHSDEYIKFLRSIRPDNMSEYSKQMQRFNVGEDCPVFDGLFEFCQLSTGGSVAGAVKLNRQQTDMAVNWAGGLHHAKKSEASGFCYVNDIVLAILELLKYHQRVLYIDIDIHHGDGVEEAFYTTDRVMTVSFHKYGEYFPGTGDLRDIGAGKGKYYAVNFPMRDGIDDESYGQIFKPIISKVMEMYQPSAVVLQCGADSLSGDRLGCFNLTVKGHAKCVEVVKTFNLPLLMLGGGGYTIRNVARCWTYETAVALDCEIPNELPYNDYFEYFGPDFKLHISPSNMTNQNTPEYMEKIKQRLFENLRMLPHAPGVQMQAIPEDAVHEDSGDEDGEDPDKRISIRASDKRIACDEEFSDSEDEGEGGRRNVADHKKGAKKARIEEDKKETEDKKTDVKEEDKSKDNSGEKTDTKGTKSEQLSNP
Assay [4] deals with T5, Polyamine deacetylase HDAC10 (Homo sapiens, UniProt Q969S8).
T5 sequence (Q969S8 whole entry): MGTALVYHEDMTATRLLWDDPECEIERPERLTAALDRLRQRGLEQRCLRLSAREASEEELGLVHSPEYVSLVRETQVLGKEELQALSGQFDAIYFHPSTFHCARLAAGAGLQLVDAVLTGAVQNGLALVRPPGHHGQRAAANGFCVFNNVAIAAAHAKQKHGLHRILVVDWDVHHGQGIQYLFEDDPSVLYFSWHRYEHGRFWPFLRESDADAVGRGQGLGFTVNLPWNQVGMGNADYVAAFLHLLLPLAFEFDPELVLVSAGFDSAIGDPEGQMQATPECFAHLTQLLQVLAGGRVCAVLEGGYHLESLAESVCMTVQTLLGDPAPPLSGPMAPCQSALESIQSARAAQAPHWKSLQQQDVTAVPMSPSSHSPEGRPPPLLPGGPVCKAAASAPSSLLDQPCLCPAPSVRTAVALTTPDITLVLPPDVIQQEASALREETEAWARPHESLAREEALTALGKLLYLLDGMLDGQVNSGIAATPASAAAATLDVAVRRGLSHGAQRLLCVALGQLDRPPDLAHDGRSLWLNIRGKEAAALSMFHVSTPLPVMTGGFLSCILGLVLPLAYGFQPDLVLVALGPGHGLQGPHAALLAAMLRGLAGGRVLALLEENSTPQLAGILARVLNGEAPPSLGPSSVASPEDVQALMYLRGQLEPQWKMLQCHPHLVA
The assay is described as follows: Inhibition of HDAC10 (unknown origin).

The next assay deals with Histone deacetylase 1 (Homo sapiens, UniProt Q13547). The assay is described as follows: Inhibition of HDAC1 (unknown origin).
Sequence of Histone deacetylase 1 (Q13547 whole entry): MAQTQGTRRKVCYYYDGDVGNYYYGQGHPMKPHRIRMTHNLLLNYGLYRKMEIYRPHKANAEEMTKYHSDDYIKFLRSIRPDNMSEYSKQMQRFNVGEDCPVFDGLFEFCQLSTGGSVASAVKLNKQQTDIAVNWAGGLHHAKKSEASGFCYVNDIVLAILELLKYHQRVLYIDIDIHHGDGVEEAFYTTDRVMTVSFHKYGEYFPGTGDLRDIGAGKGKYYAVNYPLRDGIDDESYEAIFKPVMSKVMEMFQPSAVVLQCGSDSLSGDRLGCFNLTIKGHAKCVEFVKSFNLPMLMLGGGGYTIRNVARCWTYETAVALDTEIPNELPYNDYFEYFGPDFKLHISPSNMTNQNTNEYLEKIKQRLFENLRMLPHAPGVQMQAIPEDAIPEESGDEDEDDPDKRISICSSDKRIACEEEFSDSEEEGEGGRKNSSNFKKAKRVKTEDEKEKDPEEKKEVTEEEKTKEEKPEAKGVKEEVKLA
The target of assay [5] is T6, Protein deacetylase HDAC6 (Homo sapiens, UniProt Q9UBN7).
T6 sequence (Q9UBN7 whole entry): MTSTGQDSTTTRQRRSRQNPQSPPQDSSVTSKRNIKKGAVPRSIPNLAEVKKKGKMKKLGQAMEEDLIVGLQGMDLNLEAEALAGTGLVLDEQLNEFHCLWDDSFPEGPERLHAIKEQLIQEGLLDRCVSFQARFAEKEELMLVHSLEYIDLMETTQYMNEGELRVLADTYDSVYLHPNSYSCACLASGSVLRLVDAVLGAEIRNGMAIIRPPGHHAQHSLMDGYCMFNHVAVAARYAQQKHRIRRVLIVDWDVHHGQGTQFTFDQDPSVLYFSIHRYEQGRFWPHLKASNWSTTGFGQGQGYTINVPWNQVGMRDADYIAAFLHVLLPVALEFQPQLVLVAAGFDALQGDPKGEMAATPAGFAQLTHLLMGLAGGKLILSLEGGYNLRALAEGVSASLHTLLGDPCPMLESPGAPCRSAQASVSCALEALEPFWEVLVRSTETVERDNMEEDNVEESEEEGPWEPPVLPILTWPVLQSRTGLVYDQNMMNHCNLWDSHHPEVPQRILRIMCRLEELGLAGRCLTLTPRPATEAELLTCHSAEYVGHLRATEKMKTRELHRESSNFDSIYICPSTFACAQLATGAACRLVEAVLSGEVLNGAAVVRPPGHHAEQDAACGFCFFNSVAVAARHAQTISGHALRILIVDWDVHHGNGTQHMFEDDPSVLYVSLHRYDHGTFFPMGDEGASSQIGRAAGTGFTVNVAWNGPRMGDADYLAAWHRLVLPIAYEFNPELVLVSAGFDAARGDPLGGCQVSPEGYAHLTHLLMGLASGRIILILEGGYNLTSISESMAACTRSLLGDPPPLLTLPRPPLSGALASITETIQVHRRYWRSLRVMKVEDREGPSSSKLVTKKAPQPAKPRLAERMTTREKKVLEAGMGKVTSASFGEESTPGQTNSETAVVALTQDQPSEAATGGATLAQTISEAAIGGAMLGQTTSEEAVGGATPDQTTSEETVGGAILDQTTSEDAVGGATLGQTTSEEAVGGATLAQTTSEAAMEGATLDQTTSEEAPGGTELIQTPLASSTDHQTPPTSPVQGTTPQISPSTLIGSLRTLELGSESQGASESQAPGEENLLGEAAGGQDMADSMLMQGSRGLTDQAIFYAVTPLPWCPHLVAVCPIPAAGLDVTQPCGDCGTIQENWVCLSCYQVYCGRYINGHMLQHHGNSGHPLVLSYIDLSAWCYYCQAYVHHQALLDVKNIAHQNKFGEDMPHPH
The assay is described as follows: Inhibition of HDAC6 (unknown origin).

For another assay, the target named is T7, Histone deacetylase 11 (Homo sapiens, UniProt Q96DB2).
T7 sequence (Q96DB2 whole entry): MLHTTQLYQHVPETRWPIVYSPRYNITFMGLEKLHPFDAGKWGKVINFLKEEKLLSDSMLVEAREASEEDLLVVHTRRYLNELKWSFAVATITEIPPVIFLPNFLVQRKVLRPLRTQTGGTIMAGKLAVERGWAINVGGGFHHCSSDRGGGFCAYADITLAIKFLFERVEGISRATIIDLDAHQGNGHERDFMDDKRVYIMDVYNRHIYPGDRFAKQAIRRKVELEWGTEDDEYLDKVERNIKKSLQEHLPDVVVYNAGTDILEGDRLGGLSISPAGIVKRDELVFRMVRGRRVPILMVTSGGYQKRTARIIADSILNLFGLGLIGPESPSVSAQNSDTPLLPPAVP
The assay is described as follows: Inhibition of HDAC11 (unknown origin).

The target of assay [6] is T4, Histone deacetylase 9. The assay is described as follows: Inhibition of HDAC9 in human HeLa nuclear extract using Boc-Lys(Ac)-AMC as substrate preincubated for 5 mins followed by substrate addition measured after 30 mins by fluorometric assay. The class given is cell-free.
In assay [7] the target is T8, Histone deacetylase 7 (Homo sapiens, UniProt Q8WUI4).
T8 sequence (Q8WUI4 whole entry): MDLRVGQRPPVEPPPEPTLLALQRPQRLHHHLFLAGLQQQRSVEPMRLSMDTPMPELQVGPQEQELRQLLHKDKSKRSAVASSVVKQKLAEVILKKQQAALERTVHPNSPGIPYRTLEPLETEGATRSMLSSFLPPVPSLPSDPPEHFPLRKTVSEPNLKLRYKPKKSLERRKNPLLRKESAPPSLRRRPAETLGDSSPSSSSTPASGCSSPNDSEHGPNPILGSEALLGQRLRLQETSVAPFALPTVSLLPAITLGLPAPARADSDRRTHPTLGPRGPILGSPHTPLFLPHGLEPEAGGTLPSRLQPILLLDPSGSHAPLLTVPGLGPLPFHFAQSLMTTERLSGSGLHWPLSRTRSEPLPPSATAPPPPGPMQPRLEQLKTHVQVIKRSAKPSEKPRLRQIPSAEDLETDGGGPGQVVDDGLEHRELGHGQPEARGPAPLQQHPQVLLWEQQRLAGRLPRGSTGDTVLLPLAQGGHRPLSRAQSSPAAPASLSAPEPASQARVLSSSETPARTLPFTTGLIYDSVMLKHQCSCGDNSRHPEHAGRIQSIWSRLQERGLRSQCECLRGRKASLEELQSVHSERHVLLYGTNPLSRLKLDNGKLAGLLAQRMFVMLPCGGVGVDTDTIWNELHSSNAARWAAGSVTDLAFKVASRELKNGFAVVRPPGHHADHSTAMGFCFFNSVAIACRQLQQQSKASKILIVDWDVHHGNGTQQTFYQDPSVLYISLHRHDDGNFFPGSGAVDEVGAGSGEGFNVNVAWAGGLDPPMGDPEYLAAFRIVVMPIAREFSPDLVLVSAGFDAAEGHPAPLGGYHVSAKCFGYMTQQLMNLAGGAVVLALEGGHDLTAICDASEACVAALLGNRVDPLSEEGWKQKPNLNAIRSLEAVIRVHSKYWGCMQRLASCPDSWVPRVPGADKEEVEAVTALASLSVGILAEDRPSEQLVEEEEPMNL
The assay is described as follows: Inhibition of HDAC7 (unknown origin).

Assay [8] deals with T1, Histone deacetylase 4. The assay is described as follows: Inhibition of HDAC4 in human HeLa nuclear extract using Boc-Lys(Ac)-AMC as substrate preincubated for 5 mins followed by substrate addition measured after 30 mins by fluorometric assay. The class given is cell-free.
For assay [9], the target named is T8, Histone deacetylase 7. The assay is described as follows: Inhibition of HDAC7 in human HeLa nuclear extract using Boc-Lys(Ac)-AMC as substrate preincubated for 5 mins followed by substrate addition measured after 30 mins by fluorometric assay. The class given is cell-free.
The target of assay [10] is T6, Protein deacetylase HDAC6. The assay is described as follows: Inhibition of HDAC6 in human HeLa nuclear extract using Boc-Lys(Ac)-AMC as substrate preincubated for 5 mins followed by substrate addition measured after 30 mins by fluorometric assay. The assay is classed as cell-free.
Assay [11] has as its target T2, Histone deacetylase 5. The assay is described as follows: Inhibition of HDAC5 in human HeLa nuclear extract using Boc-Lys(Ac)-AMC as substrate preincubated for 5 mins followed by substrate addition measured after 30 mins by fluorometric assay. The class given is cell-free.

Each structure is given as a SMILES string. Some results are limits rather than exact numbers.

T1 sequence (P56524 whole entry): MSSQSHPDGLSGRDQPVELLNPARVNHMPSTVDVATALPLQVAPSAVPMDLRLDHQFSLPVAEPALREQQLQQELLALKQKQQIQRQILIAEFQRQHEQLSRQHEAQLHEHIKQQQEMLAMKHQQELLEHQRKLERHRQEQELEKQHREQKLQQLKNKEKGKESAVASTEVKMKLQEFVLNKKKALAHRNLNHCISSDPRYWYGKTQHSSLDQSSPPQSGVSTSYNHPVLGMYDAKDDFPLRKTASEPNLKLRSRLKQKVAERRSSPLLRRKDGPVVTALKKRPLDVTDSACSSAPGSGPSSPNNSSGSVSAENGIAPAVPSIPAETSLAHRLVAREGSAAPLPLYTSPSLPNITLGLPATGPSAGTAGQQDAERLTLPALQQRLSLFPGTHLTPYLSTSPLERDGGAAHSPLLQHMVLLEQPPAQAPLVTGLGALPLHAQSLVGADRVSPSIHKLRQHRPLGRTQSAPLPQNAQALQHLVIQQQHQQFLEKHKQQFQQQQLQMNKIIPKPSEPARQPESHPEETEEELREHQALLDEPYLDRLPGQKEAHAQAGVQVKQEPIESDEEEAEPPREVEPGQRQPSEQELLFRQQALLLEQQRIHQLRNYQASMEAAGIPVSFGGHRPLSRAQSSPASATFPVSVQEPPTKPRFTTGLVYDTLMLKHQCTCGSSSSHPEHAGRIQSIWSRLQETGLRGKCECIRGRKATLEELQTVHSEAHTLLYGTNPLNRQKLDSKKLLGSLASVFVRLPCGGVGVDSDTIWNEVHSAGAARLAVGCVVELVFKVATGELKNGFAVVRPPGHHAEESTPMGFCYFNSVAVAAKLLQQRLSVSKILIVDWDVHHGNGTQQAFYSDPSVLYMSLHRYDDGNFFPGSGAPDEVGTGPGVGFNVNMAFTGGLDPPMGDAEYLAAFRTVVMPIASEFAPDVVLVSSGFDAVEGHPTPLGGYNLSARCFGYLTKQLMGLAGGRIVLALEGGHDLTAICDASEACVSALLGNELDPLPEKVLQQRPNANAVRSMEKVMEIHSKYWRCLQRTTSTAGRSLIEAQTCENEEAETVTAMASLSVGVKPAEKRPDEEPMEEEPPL
T2 sequence (Q9UQL6 whole entry): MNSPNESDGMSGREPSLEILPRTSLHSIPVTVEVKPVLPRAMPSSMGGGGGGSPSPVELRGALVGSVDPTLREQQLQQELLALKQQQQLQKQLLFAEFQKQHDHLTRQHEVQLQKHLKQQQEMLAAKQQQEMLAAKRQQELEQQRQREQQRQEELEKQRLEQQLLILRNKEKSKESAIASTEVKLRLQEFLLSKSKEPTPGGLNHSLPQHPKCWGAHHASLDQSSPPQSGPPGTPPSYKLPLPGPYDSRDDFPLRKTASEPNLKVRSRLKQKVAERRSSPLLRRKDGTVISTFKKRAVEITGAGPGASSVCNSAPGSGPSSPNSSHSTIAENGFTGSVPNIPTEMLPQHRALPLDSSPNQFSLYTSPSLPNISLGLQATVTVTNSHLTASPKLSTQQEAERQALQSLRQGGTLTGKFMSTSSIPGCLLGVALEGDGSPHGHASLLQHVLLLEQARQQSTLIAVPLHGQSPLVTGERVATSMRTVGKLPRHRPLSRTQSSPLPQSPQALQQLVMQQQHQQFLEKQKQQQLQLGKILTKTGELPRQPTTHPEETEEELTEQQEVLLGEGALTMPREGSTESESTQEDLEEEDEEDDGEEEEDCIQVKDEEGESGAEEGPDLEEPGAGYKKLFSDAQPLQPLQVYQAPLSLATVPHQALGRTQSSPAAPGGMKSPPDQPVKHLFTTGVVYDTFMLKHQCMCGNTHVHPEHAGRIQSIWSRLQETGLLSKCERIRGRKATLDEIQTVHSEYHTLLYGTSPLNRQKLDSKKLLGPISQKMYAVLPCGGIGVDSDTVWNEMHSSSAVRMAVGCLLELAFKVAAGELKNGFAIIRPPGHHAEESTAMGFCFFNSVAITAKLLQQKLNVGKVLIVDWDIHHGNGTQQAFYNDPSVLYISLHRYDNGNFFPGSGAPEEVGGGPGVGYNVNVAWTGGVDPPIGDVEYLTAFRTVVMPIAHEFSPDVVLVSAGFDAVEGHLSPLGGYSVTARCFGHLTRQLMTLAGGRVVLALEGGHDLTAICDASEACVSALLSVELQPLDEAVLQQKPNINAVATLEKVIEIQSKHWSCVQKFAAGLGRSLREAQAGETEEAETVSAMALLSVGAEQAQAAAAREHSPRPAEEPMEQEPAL
Sequence of Histone deacetylase 3 (O15379 whole entry): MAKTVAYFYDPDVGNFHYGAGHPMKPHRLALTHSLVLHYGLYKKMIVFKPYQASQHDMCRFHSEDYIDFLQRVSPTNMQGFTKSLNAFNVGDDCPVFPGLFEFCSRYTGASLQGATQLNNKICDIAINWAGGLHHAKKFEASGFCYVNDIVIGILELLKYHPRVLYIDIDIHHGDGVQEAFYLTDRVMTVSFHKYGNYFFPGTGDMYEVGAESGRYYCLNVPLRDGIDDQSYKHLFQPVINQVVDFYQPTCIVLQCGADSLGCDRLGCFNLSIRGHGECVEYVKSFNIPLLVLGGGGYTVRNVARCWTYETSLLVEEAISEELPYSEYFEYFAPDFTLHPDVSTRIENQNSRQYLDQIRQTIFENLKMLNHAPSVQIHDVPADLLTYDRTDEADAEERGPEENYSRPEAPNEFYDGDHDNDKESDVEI

As for `CN1CCC(CNC(=O)c2cccc(-c3noc(C(F)(F)F)n3)c2)(c2nc(-c3ccccc3)cs2)CC1`, the Ki (usually a dissociation constant, usually derived from enzyme kinetics or from competition with a known ligand) at Histone deacetylase 4 [1] was 0.075 µM; at Histone deacetylase 5 [2], 0.182 µM; at Histone deacetylase 3, greater than 43 µM; at Histone deacetylase 8, 7.66 µM; on Histone deacetylase 9 [3] it was 0.008 µM; on Histone deacetylase 2, greater than 19 µM. In addition, the Ki in assay [4] was greater than 10 µM; on Histone deacetylase 1 it was greater than 23 µM; in assay [5] it was 2.81 µM; at Histone deacetylase 11 it was greater than 19 µM.
Turning to `CN(Cc1cnc2nc(N)nc(N)c2n1)c1ccc(C(=O)NC(CCP(=O)(O)O)P(=O)(O)O)cc1` (stereo unspecified), the IC50 (in general, the concentration that gives 50% inhibition) on Histone deacetylase 9 [6] is greater than 40 µM; against Histone deacetylase 7 [7], 16.2 µM; against Histone deacetylase 4 [1], 4.16 µM; at Histone deacetylase 4 [8], greater than 40 µM; against Histone deacetylase 7 [9] it was greater than 40 µM; against Histone deacetylase 5 [2] it was 1.27 µM. Further, the IC50 in [10] was greater than 40 µM; against Histone deacetylase 9 [3], 7.84 µM; against Histone deacetylase 5 [11], greater than 40 µM; in assay [5], greater than 40 µM.
On to `CN1CCC(CNC(=O)c2cccc(C(=O)NO)c2)(c2nc(-c3ccccc3)cs2)CC1`, for which the Ki on Histone deacetylase 7 [7] is 3.94 µM; at Histone deacetylase 4 [1], 23.8 µM; at Histone deacetylase 5 [2], 24.3 µM; at Histone deacetylase 3, greater than 43 µM; on Histone deacetylase 8 it was 1.33 µM; at Histone deacetylase 9 [3], 5.98 µM. For the same compound, the Ki was greater than 19 µM at Histone deacetylase 2; greater than 10 µM in assay [4]; 11.9 µM at Histone deacetylase 1; 0.189 µM in assay [5]; greater than 19 µM on Histone deacetylase 11.
